Results from article PMC9936582, “Sulfamate Acetamides as Self-Immolative Electrophiles for Covalent Ligand-Directed Release Chemistry” (Journal of the American Chemical Society, 2023).

Experiments:
Mino cells = assay: In situ proteomic labeling with alkyne probes, in-gel fluorescence; format: cell-based; details: 2 h, TAMRA-azide CuAAC
Source text: To assess proteomic selectivity in cells, we have synthesized two sulfamate acetamides (2a and 2b) and a chloroacetamide (2c) with an alkyne functionality (Figure 2A and Figure S8). We treated Mino cells for two hours with either DMSO or 2a–2c. We then lysed the cells, labeled the alkynes via copper-catalyzed “click chemistry” (CuAAC) with TAMRA-azide, and imaged the adducts via in-gel fluorescence (Figure 2C). Similar to their reactivity pattern in the GSH reactivity assay, these compounds labeled various amounts of proteins under cellular conditions.
Mino cells were cultured in RPMI-medium supplemented with 15% FBS and 1% p/s at 37 °C and 5% CO2. […] The cells were lysed with RIPA buffer (Sigma, R0278), and protein concentration was determined using BCA protein assay (Thermo Fisher Scientific, 23225). Lysates were then diluted to 2 mg/mL in PBS. Lysates were clicked to TAMRA-azide (Lumiprobe). “Click” reaction was performed using a final concentration of 40 μM TAMRA-azide, 3 mM CuSO4, 3 mM Tris(3-hydroxypropyltriazolylmethyl)amine (THPTA, Sigma), and 3.7 mM Sodium L-ascorbate (Sigma) in a final volume of 60 μL. The samples were subjected to precipitation.
Precipitation: 1× chloroform, 4× methanol, and 3× water were added to the samples and vortexed thoroughly. The samples were spun down for 10 min at 4 °C, 21,000g. […]

[1] = GSH consumption assay (LC/MS); details: 100 μM compound, 5 mM GSH, same conditions as ibrutinib
Experimental: A sample from the reaction mixture was injected to an LC/MS every hour, and we quantified the decrease in starting material over the course of the reaction.
All solvents were bubbled with argon. Reaction mixtures were kept at 10 °C. Every 1 h, 5 μL from the reaction mixture were injected into the LC/MS. The reaction was followed by the peak area of the electrophile normalized by the area of the 4-nitrocyano benzene (i.e., by the disappearance of the starting material). The natural logarithm of the results was fitted to linear regression, and t1/2 was calculated as t1/2 = ln 2/–slope.

BTK [2] = biological target: T1, BTK (Homo sapiens, UniProt Q06187); assay: Cellular labeling profile of CoLDR probe in Mino cells, in-gel fluorescence; format: cell-based; set-up: endogenous in cells; host or cells: Mino cells; details: 2 h, 100 nM
Experimental: In addition to the in vitro labeling of BTK by our probe, we also tested its engagement in cells. […] The samples were imaged via gel fluorescence. […] We conducted this cellular labeling experiment at higher concentrations to assess the saturation of BTK binding (Figure S33B).
Precipitation: 1× chloroform, 4× methanol, and 3× water were added to the samples and vortexed thoroughly. The samples were spun down for 10 min at 4 °C, 21,000g. The top layer was aspirated, and the pellet was resuspended in 4× methanol. The sample was vortexed and spun down again for 10 min at 4 °C, 21,000g, the solution was removed, and the pellet was dried for 2 min. The pellet was dissolved in 42 μL of PBS followed by a 14 μL of 4× sample buffer.

BTK [3] = biological target: T1, BTK; assay: BTK activity (autophosphorylation) in Mino cells, Western blot; format: cell-based; set-up: endogenous in cells; host or cells: Mino cells; details: anti-human IgM activation
Experimental: To assess the cellular efficacy of these compounds, we followed the inhibition of BTK autophosphorylation in Mino cells. After 1 h of pre-incubation with the inhibitors and B-cell activation with an anti-IgM antibody, BTK autophosphorylation was followed by Western blot.
The cell pellets were subjected to immunoblotting, and Western blots were performed for p-BTK, BTK, and β-actin.
Cell pellets were washed with ice-cold PBS and lysed using RIPA buffer (Sigma, R0278). […] Samples containing 50 μg total protein were prepared with 4× LDS sample buffer (NuPAGE, Thermo Scientific, NP0007) and 20 mM DTT, which were then resolved on a 4–20% Bis–Tris gel (GeneScript SurePAGE, M00657). […] An EZ-ECL Kit (Biological Industries, 20-500-1000) was used to detect HRP activity.

Pin1 [4] = biological target: T2, Pin1 (Homo sapiens, UniProt Q13526); assay: Intact protein MS labeling of Pin1; format: binding; details: 2 μM Pin1, 2 μM compound, pH 7.5, 1 h, 25 °C
T2 construct: The catalytic domain of Pin1 (2 μM) in […] and 75 mM NaCl (pH 7.5) was incubated; made in house
Experimental: Initially, we incubated these compounds (4a–4g; 2 μM) with Pin1 (2 μM; 50 mM Tris buffer; pH 7.5, 1 h; 25 °C) to check covalent labeling by intact protein MS (Figure 5B,C; Figure S23). Under these conditions, sulfopin labeled 59% as previously reported;[38] the sulfonate (4a) labeled 18%, whereas alkyl sulfamates (4b and 4c) labeled 16 and 56%, respectively. […] We have previously reported that replacing the tert-butyl group in sulfopin by a cyclohexyl increases the labeling along with intrinsic thiol reactivity. Compound 4g contains a cyclohexyl group instead of the tert-butyl and a phenyl sulfamate electrophile and was able to label >95% of Pin1 under these conditions.
Pin1 was expressed and purified as previously reported.[38] The catalytic domain of Pin1 (2 μM) in […] and 75 mM NaCl (pH 7.5) was incubated with 2 μM sulfopin sulfamate (4a–4g) for 1 h at 25 °C.
The reaction mixtures, at room temperature for various times, were injected into the LC/MS. For data analysis, the raw spectra were deconvoluted using a 20,000:40,000 Da (For Pin1, 10,000:30,000) window and 1 Da resolution. The labeling percentage for a compound was determined as the labeling of a specific compound (alone or together with other compounds) divided by the overall detected protein species.

[5] = DTNB thiol reactivity assay; format: physicochemical
Experimental: The compound 5,5′-dithio-bis(2-nitrobenzoic acid) (DTNB; 50 μM) was incubated with 200 μM tris(2-carboxyethyl)phosphine (TCEP) in 20 mM sodium phosphate buffer (pH 7.4) and 150 mM NaCl for 5 min at room temperature to obtain TNB^–2. […] UV absorbance was acquired every 15 min for 7 h. The assay was performed in a 384-well plate using a Tecan Spark 10 M plate reader. […] Compounds were measured in triplicate. The data were fitted to a second-order reaction equation such that the rate constant (K) is the slope of ln([A][B0]/[B][A0]), where [A0] and [B0] are the initial concentrations of the compound (200 μM) and TNB^–2 (100 μM), respectively, and [A] and [B] are the remaining concentrations as a function of time as deduced from spectrometric measurements. Linear regression using Prism was performed to fit the rate against the first 7 h of measurements.

PATU-8988T cells = assay: Competitive isoDTB-ABPP in PATU-8988T cells; format: cell-based, human; set-up: dose or concentration left out as unconfirmed; details: 4 h
Experimental: Using our previously reported sulfopin-DTB probe[38] (Figure S29A), we evaluated the cellular engagement of these compounds with Pin1 in OCI-AML2 cells. Compounds 4c, 4d, 4e, and 4g and sulfopin were incubated in OCI-AML2 cells (0.5 and 2.5 μM) followed by lysis and treatment with sulfopin-DTB (1 μM). The lysates were pulled down using streptavidin beads, and Pin1 was imaged by Western blot. […] At 0.5 μM, all of these compounds show only ∼30% Pin1 engagement. […] Both sulfopin and 4d labeled only six peptides with an H/L ratio of >2. […]
The preparation of IsoDTB-ABPP samples was performed essentially as described in Zanon et al.2.
Experiments were conducted in quadruplicates. PATU cells were incubated for 2 h with 5 µM compounds Sulfopin or 3g (or with DMSO), and collected by centrifuge at 300 g for 5 min followed by ice cold PBS wash. For lysis, samples containing 10 million cells were dispersed in 0.5 mL of RIPA buffer (Sigma, R0278), incubated with occasional vortexing for 30 min on ice, followed by centrifugation at 21,000 g for 15 min. […]
sample was diluted to 1.7 mg/mL using PBS. To each sample, 5 µL of 10 mM IA-alkyne was added, followed by 1 h incubation at room temperature in the dark. 10 µL of 5 mM DesThioTag was added (Light for the compound treated samples, heavy for the DMSO-treated samples), followed by 18 µL of CuSO4:THPTA (100 mM), and the click reaction was initiated by addition of 15 µL of 150 mM sodium ascorbate (freshly dissolved in water). The samples were incubated on a rotary shaker for 1 h at room temperature. The compound-treated and DMSO-treated samples were mixed with 4 mL methanol, 1 mL chloroform and 2 mL water on ice, vortexed and centriduged at 3200 g for 10 min at 4°C. The top layer was aspirated, and 3 mL methanol was added, followed by centrifugation and aspiration of the supernatant. The pellets were air dried and stored at -80°C until the following treatment. The pellets were resuspended in 0.3 mL of 8 M urea freshly dissolved in PBS using probe sonication (8 sec total at 40% amplitude, 1 sec on/2 sec off, at room temperature). Following the resuspension, the samples were diluted with 1 mL of PBS. Then each sample was mixed with 1.3 mL of slurry containing 110 µL of streptavidin agarose beads (Thermo Streptavidin Agarose cat # 20349), prewashed, and dispersed in 0.2% IGEPAL. The samples were incubated with rotation for 3 h at room temperature. The beads were pelleted by centrifugation at 2000 g for 2 min, transferred to spin columns, and washed 3 times with 0.1% IGEPAL/PBS, 3 times PBS, and 3 times water.
The beads were then suspended in 8 M Urea/50 mM ammonium bicarbonate, and 15 µL of 31 mg/mL DTT were added, followed by incubation at 37°C for 45 min. […]

Pin1 [6] = biological target: T2, Pin1; assay: Determination of KI and Kinact for Pin1; format: binding; details: Pin1 0.5 μM, 100 mM Tris buffer pH 7.4, 14 °C
Experimental: intensities. Ratios that were above 20 or infinite (due to the sum being zero for the low intensities) were defined as 20. Intensities measured for different peptides containing the same modified cysteine were […]
Pin 1 (500 nM) was incubated at various concentrations of Sulfopin (0.5, 1, 2, 5, 20, 50, 100, 150, […]
in 100 mM Tris buffer at pH 7.4. After the addition, the samples are put at 14 °C. The reaction mixtures, at various time points (indicated in the graph), were injected into the LC/MS. For data analysis, the raw spectra were deconvoluted using a 10000:30000 Da window and 1 Da resolution. The labeling percentage for a compound was determined as the labeling of a specific compound (alone or together with other compounds) divided by the overall detected protein species. The % of unlabelled Pin 1 was plotted against time and fitted to the pseudo-first-order reaction kinetics formula (Figure S24A & C). The obtained rate constants were fitted to the Michaelis-Menten-type saturation curve (Fig. S24B & D) to extrapolate kinact and KI.

[7] = Metabolic stability of sulfopin analogues in liver microsomes; format: in vitro ADME
Experimental: Next, we examined the buffer stability of the sulfopin sulfamate acetamides in PBS buffer (pH 8; 37 °C). Similar to the model compounds, the chloroacetamide (sulfopin) and sulfonate (4a) warheads show 30 and 15% hydrolysis after 2 days, respectively (Figure S26).
Figure S27: Sulfopin sulfamates show high metabolic stability: Compounds (Sulfopin, 4d, and 4g) were incubated
in liver microsomes and injected to LC/MS/MS at indicated time points. The peak intensities of the compounds were […]

Buffer stability assay = format: physicochemical
Experimental: Reaction mixtures were kept at 37 °C with shaking. After 4 days (unless otherwise mentioned), 5 μL from the reaction mixture were injected into the LC/MS to check the stability of the compounds.

[8] = Q13526_C113 (Pin1 Cys113), text: PATU-8988T cells

T1 sequence (Q06187 whole entry): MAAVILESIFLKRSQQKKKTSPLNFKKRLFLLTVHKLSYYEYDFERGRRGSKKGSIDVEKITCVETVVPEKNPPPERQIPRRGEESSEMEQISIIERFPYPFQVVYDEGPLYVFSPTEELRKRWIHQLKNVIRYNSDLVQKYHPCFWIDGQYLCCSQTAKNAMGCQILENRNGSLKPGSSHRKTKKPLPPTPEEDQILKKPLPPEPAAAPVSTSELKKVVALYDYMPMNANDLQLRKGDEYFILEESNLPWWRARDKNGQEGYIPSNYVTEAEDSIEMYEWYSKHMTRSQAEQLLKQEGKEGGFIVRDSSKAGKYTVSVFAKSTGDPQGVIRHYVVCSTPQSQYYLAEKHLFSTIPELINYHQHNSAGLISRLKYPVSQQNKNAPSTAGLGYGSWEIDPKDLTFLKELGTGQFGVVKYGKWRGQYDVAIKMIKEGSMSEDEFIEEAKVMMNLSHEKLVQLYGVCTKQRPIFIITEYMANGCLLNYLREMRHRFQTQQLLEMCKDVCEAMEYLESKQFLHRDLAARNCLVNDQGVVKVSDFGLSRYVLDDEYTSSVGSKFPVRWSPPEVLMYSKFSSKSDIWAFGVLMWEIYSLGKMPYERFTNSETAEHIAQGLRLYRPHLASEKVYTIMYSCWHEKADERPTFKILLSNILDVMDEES
T2 sequence (Q13526 52-163 limits assumed): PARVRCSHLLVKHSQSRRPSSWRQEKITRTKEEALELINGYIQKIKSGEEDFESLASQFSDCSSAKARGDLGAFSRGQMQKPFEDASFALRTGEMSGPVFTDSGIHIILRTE

## C#Cc1ccc(NC(=O)CCl)cc1 [2c]
Mino cells
  proteins labeled under cellular conditions: labeled the highest number of proteins

## C#CCOS(=O)(=O)N1CCC[C@@H](n2nc(-c3ccc(Oc4ccccc4)cc3)c3c(N)ncnc32)C1 [3j]
[1]
  reaction with GSH (in words): did not undergo any reaction with GSH
BTK [2]
  apparent off-targets that ibrutinib did not compete: three
BTK [2]; TAMRA-azide
  BTK labeling in cells (in words): showed BTK labeling
BTK [3]
  BTK autophosphorylation / activity after treatment (in words): BTK remained active

## CC(C)(C)CN(C(=O)COS(=O)(=O)Nc1ccccc1)C1CCS(=O)(=O)C1 (stereo not drawn) [4d]
Pin1 [4]
  labeling of Pin1: > 90%
[5]
  thiol reactivity compared to sulfopin: lower thiol reactivity than sulfopin
PATU-8988T cells; [8]
  isoDTB-ABPP H/L Ratio: 3.057
PATU-8988T cells; Q15149_C4494, text: PATU-8988T cells
  isoDTB-ABPP H/L Ratio: 2.693
Pin1 [6]
  Ki: 43.6 µM
[7]
  metabolic stability (in words): good metabolic stability

## CC(C)(C)CN(C(=O)CCl)C1CCS(=O)(=O)C1 (stereo not drawn) [sulfopin, reference compound]
Buffer stability assay; 200 μM, PBS buffer pH 8, 37 °C for four days
  hydrolysis (buffer stability, sulfopin analogues): 30%
Buffer stability assay; PBS buffer pH 8, 37 °C, after 2 days
  hydrolysis (buffer stability, sulfopin analogues): 30%
Pin1 [4]
  labeling of Pin1: 59%
PATU-8988T cells; P18031_C32, text: PATU-8988T cells
  isoDTB-ABPP H/L Ratio: 2.941
PATU-8988T cells; [8]
  isoDTB-ABPP H/L Ratio: 11.8257
Pin1 [6]
  Ki: 217 µM
[7]
  metabolic stability (in words): good metabolic stability
